{
  "source": "ChEMBL document CHEMBL3751689",
  "about": "“Synthesis and biological properties of prodrugs of (S)-3-(adenin-9-yl)-2-(phosphonomethoxy)propanoic acid” (Eur J Med Chem, 2016)",
  "key": {"[1]": {"test_system": "Hepatitis C virus", "assay": "Antiviral activity against HCV genotype 1a replicon infected in human HuH7 cells after 3 days by renilla luciferase assay", "format": "functional, organism-based", "conditions": "subtype 1a; for Activity: Hepacivirus hominis, Huh-7; for EC50: Huh-7, 72 h"}, "[2]": {"test_system": "Hepatitis C virus", "assay": "Antiviral activity against HCV genotype 2a replicon infected in HuH7 cells after 3 days by renilla luciferase assay", "format": "functional, organism-based", "conditions": "for Activity: Hepacivirus hominis, Huh-7; for EC50: Huh-7, 72 h"}, "[3]": {"test_system": "Hepatitis C virus", "assay": "Antiviral activity against HCV genotype 1b replicon infected in HuH7 cells after 3 days by renilla luciferase assay", "format": "functional, organism-based", "conditions": "for Activity: Hepacivirus hominis, Huh-7; for EC50: Huh-7, 72 h"}, "[4]": {"test_system": "Bordetella pertussis", "assay": "Inhibition of Bordetella pertussis CyaA in mouse J774A.1 cells assessed as cAMP formation at 10 uM by immunoassay relative to control", "format": "cell-based", "conditions": "values are per cent of control"}, "[5]": {"assay": "Cytotoxicity against human HuH7 infected with HCV genotype 1b cells after 3 days by calcein-AM dye based fluorescence analysis", "format": "cell-based, Huh-7", "conditions": "HuH7 cells infected with HCV genotype 1b"}, "[6]": {"assay": "Cytotoxicity against human HeLa cells", "format": "cell-based"}, "[7]": {"assay": "Cytotoxicity against human HuH7 infected with HCV genotype 2a cells after 3 days by calcein-AM dye based fluorescence analysis", "format": "cell-based, Huh-7", "conditions": "HuH7 cells infected with HCV genotype 2a"}, "[8]": {"test_system": "Human immunodeficiency virus 1", "assay": "Antiviral activity against HIV1 infected in MT4 cells", "format": "functional, organism-based", "conditions": "Human immunodeficiency virus 1, MT4"}, "[9]": {"test_system": "Human rhinovirus 1A", "assay": "Antiviral activity against HRV1A infected in HeLa cells", "format": "functional, organism-based"}, "[10]": {"assay": "Cytotoxicity against human MT4 cells", "format": "cell-based"}, "[11]": {"assay": "Cytotoxicity against human HuH7 infected with HCV genotype 1a cells after 3 days by calcein-AM dye based fluorescence analysis", "format": "cell-based, Huh-7", "conditions": "HuH7 cells infected with HCV genotype 1a"}, "[12]": {"assay": "Selectivity index, ratio of CC50 for human HuH7 cells to EC50 for HCV genotype 1b", "design": "species or system Huh-7"}, "[13]": {"assay": "Selectivity index, ratio of CC50 for human HuH7 cells to EC50 for HCV genotype 1a", "design": "species or system Huh-7"}, "[14]": {"assay": "Selectivity index, ratio of CC50 for human HuH7 cells to EC50 for HCV genotype 2a", "design": "species or system Huh-7"}},
  "note": "The source made the active and inactive calls. The calls are words filed in the database; no cut-off is given here.",
  "data": [
    {"molecule": "Nc1ncnc2c1ncn2C[C@H](OCP(=O)(O)O)C(=O)NC1CC1", "values": [
      {"measurement": "Activity", "setting": "[1]", "value": "inactive"},
      {"measurement": "Activity", "setting": "[2]", "value": "inactive"},
      {"measurement": "Activity", "setting": "[3]", "value": "inactive"},
      {"measurement": "residual activity", "setting": "[4]", "value": 135, "unit": "%"}
    ]},
    {"molecule": "CCOC(=O)[C@H](C)NP(=O)(CO[C@@H](Cn1cnc2c(N)ncnc21)C(=O)OC)N[C@@H](C)C(=O)OCC", "values": [
      {"measurement": "CC50 at 72 h", "setting": "[5]", "value": "> 44.4", "unit": "µM"},
      {"measurement": "CC50", "setting": "[6]", "value": "> 50", "unit": "µM"},
      {"measurement": "EC50", "setting": "[1]", "value": "> 44.4", "unit": "µM"},
      {"measurement": "CC50 at 72 h", "setting": "[7]", "value": "> 44.4", "unit": "µM"},
      {"measurement": "EC50", "setting": "[8]", "value": "> 53.2", "unit": "µM"},
      {"measurement": "EC50", "setting": "[9]", "value": "> 50", "unit": "µM"},
      {"measurement": "EC50", "setting": "[2]", "value": 39.2, "unit": "µM"},
      {"measurement": "CC50", "setting": "[10]", "value": 40.5, "unit": "µM"},
      {"measurement": "EC50", "setting": "[3]", "value": "> 44.4", "unit": "µM"},
      {"measurement": "CC50 at 72 h", "setting": "[11]", "value": "> 44.4", "unit": "µM"},
      {"measurement": "residual activity", "setting": "[4]", "value": 139, "unit": "%"}
    ]},
    {"molecule": "CCOC(=O)[C@H](Cc1ccccc1)NP(=O)(CO[C@@H](Cn1cnc2c(N)ncnc21)C(=O)OC)Oc1ccccc1", "note": "(some centres not stated)", "values": [
      {"measurement": "Ratio CC50/EC50", "setting": "[12]", "value": 30},
      {"measurement": "Ratio CC50/EC50", "setting": "[13]", "value": 30},
      {"measurement": "CC50 at 72 h", "setting": "[5]", "value": "> 44.4", "unit": "µM"},
      {"measurement": "CC50", "setting": "[6]", "value": "> 50", "unit": "µM"},
      {"measurement": "Ratio CC50/EC50", "setting": "[14]", "value": 30},
      {"measurement": "EC50", "setting": "[1]", "value": 0.8, "unit": "µM"},
      {"measurement": "CC50 at 72 h", "setting": "[7]", "value": 25.3, "unit": "µM"},
      {"measurement": "EC50", "setting": "[8]", "value": "> 53.2", "unit": "µM"},
      {"measurement": "EC50", "setting": "[9]", "value": "> 50", "unit": "µM"},
      {"measurement": "EC50", "setting": "[2]", "value": 0.6, "unit": "µM"},
      {"measurement": "CC50", "setting": "[10]", "value": 1.4, "unit": "µM"},
      {"measurement": "EC50", "setting": "[3]", "value": 1.5, "unit": "µM"},
      {"measurement": "CC50 at 72 h", "setting": "[11]", "value": 42.6, "unit": "µM"},
      {"measurement": "residual activity", "setting": "[4]", "value": 68, "unit": "%"}
    ]},
    {"molecule": "CCOC(=O)[C@H](Cc1ccccc1)NP(=O)(CO[C@@H](Cn1cnc2c(N)ncnc21)C(=O)OC)N[C@@H](Cc1ccccc1)C(=O)OCC", "values": [
      {"measurement": "Ratio CC50/EC50", "setting": "[12]", "value": 30},
      {"measurement": "Ratio CC50/EC50", "setting": "[13]", "value": 30},
      {"measurement": "CC50 at 72 h", "setting": "[5]", "value": 30.4, "unit": "µM"},
      {"measurement": "CC50", "setting": "[6]", "value": "> 50", "unit": "µM"},
      {"measurement": "Ratio CC50/EC50", "setting": "[14]", "value": 30},
      {"measurement": "EC50", "setting": "[1]", "value": 0.6, "unit": "µM"},
      {"measurement": "CC50 at 72 h", "setting": "[7]", "value": 12.6, "unit": "µM"},
      {"measurement": "EC50", "setting": "[8]", "value": "> 53.2", "unit": "µM"},
      {"measurement": "EC50", "setting": "[9]", "value": "> 50", "unit": "µM"},
      {"measurement": "EC50", "setting": "[2]", "value": 0.6, "unit": "µM"},
      {"measurement": "CC50", "setting": "[10]", "value": 0.7, "unit": "µM"},
      {"measurement": "EC50", "setting": "[3]", "value": 1.1, "unit": "µM"},
      {"measurement": "CC50 at 72 h", "setting": "[11]", "value": 18.3, "unit": "µM"},
      {"measurement": "residual activity", "setting": "[4]", "value": 112, "unit": "%"}
    ]},
    {"molecule": "CCCCCCCCCCCCCCCCOCCCOP(=O)(O)CO[C@@H](Cn1cnc2c(N)ncnc21)C(=O)OC", "values": [
      {"measurement": "CC50 at 72 h", "setting": "[5]", "value": "> 44.4", "unit": "µM"},
      {"measurement": "CC50", "setting": "[6]", "value": "> 50", "unit": "µM"},
      {"measurement": "EC50", "setting": "[1]", "value": 20.6, "unit": "µM"},
      {"measurement": "CC50 at 72 h", "setting": "[7]", "value": "> 44.4", "unit": "µM"},
      {"measurement": "EC50", "setting": "[8]", "value": "> 53.2", "unit": "µM"},
      {"measurement": "EC50", "setting": "[9]", "value": "> 50", "unit": "µM"},
      {"measurement": "EC50", "setting": "[2]", "value": 9.6, "unit": "µM"},
      {"measurement": "CC50", "setting": "[10]", "value": 3.7, "unit": "µM"},
      {"measurement": "EC50", "setting": "[3]", "value": 30.9, "unit": "µM"},
      {"measurement": "CC50 at 72 h", "setting": "[11]", "value": "> 44.4", "unit": "µM"},
      {"measurement": "residual activity", "setting": "[4]", "value": 140, "unit": "%"}
    ]},
    {"molecule": "CCOC(=O)[C@H](C)NC(=O)[C@H](Cn1cnc2c(N)ncnc21)OCP(=O)(N[C@@H](C)C(=O)OCC)N[C@@H](C)C(=O)OCC", "values": [
      {"measurement": "CC50 at 72 h", "setting": "[5]", "value": "> 44.4", "unit": "µM"},
      {"measurement": "CC50", "setting": "[6]", "value": "> 50", "unit": "µM"},
      {"measurement": "EC50", "setting": "[1]", "value": "> 44.4", "unit": "µM"},
      {"measurement": "CC50 at 72 h", "setting": "[7]", "value": "> 44.4", "unit": "µM"},
      {"measurement": "EC50", "setting": "[8]", "value": "> 53.2", "unit": "µM"},
      {"measurement": "EC50", "setting": "[9]", "value": "> 50", "unit": "µM"},
      {"measurement": "EC50", "setting": "[2]", "value": "> 44.4", "unit": "µM"},
      {"measurement": "CC50", "setting": "[10]", "value": "> 53.2", "unit": "µM"},
      {"measurement": "EC50", "setting": "[3]", "value": "> 44.4", "unit": "µM"},
      {"measurement": "CC50 at 72 h", "setting": "[11]", "value": "> 44.4", "unit": "µM"}
    ]},
    {"molecule": "NC(=O)[C@H](Cn1cnc2c(N)ncnc21)OCP(=O)(O)O", "values": [
      {"measurement": "Activity", "setting": "[1]", "value": "inactive"},
      {"measurement": "Activity", "setting": "[2]", "value": "inactive"},
      {"measurement": "Activity", "setting": "[3]", "value": "inactive"},
      {"measurement": "residual activity", "setting": "[4]", "value": 66, "unit": "%"}
    ]},
    {"molecule": "Nc1ncnc2c1ncn2C[C@H](OCP(=O)(O)O)C(=O)O", "values": [
      {"measurement": "CC50 at 72 h", "setting": "[5]", "value": "> 44.4", "unit": "µM"},
      {"measurement": "CC50", "setting": "[6]", "value": "> 50", "unit": "µM"},
      {"measurement": "EC50", "setting": "[1]", "value": "> 44.4", "unit": "µM"},
      {"measurement": "CC50 at 72 h", "setting": "[7]", "value": "> 44.4", "unit": "µM"},
      {"measurement": "EC50", "setting": "[8]", "value": "> 53.2", "unit": "µM"},
      {"measurement": "EC50", "setting": "[9]", "value": "> 50", "unit": "µM"},
      {"measurement": "EC50", "setting": "[2]", "value": "> 44.4", "unit": "µM"},
      {"measurement": "CC50", "setting": "[10]", "value": "> 53.2", "unit": "µM"},
      {"measurement": "EC50", "setting": "[3]", "value": "> 44.4", "unit": "µM"},
      {"measurement": "CC50 at 72 h", "setting": "[11]", "value": "> 44.4", "unit": "µM"}
    ]},
    {"molecule": "COC(=O)[C@H](Cn1cnc2c(N)ncnc21)OCP(=O)(O)O", "values": [
      {"measurement": "Activity", "setting": "[1]", "value": "inactive"},
      {"measurement": "Activity", "setting": "[2]", "value": "inactive"},
      {"measurement": "Activity", "setting": "[3]", "value": "inactive"},
      {"measurement": "residual activity", "setting": "[4]", "value": 90, "unit": "%"}
    ]}
  ]
}
